Test results reported in patent publication US5496856A, “Aspartame for its application as a therapeutically active substance” (priority 1993, dated 1996).

Assays:
all animal species = details: cited from earlier work; for toxicity: background statement
[1] = cited from earlier work; for efficacy in treatment of ochratoxicosis: doses of the order of several grams per day
human plasma proteins [2] = assay: OTA binding to human plasma proteins, condition (i): aspartame in upper (plasma) compartment; type: in vitro ADME
Protocol: (§1) A further study was performed in order to determine the effect of aspartame on OTA binding on human plasma proteins in vitro.
(§2) An in-vitro study was performed on plasma samples obtained from healthy human volunteers, from a French blood bank (Centre de transfusion sanguine in Bordeaux), using citrate as anticoagulant. Blood samples were centrifuged at 1800 g for 30 minutes. This pooled human plasma contained 41±3 g of proteins per liter.
(§3) Static diffusion cells (polypropylene, homemade according to the model provided by Nalgene, USA) containing two compartments (upper and lower) separated by a dialysing membrane having a 10 000 D exclusion limit (Sigma Chemical, USA) were used. This membrane allows OTA and aspartame diffusion and not protein diffusion.
(§4) A human plasma sample was placed in the upper compartment and a medium (RPMI 1640, Sigma chemical, USA) in the lower one.
(§5) The plasma binding properties of OTA were evaluated under two different conditions:
(i) The aspartame at a concentration of 10 μg/ml was added in the upper compartment containing human plasma proteins before introducing OTA at three different concentrations (20, 100, and 500 μg/ml) in the lower compartment;
(§6) OTA concentration in the upper compartment was determined by HPLC (Mobile phase: methanol, acetonitrile, acetic acid, sodium acetate 5 mM (300: 300: 400: 14 v/v/v/v); injection volume 50 μl; flow rate 1 ml/min; run time for one cycle: 10 min and fluorescence detection (excitation at 340 nm and emission at 465 nm).
(§7) Before extraction of OTA from the plasma, all the studied samples of plasma, which had already fixed OTA, were dialysed against free OTA RPMI medium for at least 15 minutes, one or several times, until no more OTA was found in the lower compartment.
(§8) The results obtained under condition (i) as defined hereinabove are reported in Table I, whereas the results obtained under condition (ii) are reported in Table II.

human plasma proteins [3] = assay: OTA binding to human plasma proteins, condition (ii): OTA with or without aspartame in lower compartment; type: in vitro ADME
Protocol: as §1, §2, §3, §4, §5
(ii) The upper compartment contained human plasma proteins only and OTA (20, 100 and 500 μg/ml) was added into the lower compartment alone or concommitantly with 10 μg/ml aspartame.
as §6, §7, §8
Under condition (ii) (Table II), the aspartame was put in the same compartment as OTA in the non-plasmatic compartment to mimic the stomach (the ration OTA/aspartame=1.5 to 36).

DNA = DNA adducts by postlabeling with ATP gamma 32P in organs (genotoxicity); type: in vivo, rats; details: OTA 289 μg/kg every 48 h, 3 weeks
Protocol: The animals used in this experiment are male rats of the Wistar strain weighing 160±10 g.
The aspartame is administered by gavage, at the same time as the ochratoxin A, every 48 hours for 3 weeks.
The control and treated rats are placed in a metabolic cage for 24 hours for urine sampling and then sacrificed.
The organs of the same animals were used for extraction of the DNA, which was analyzed by the technique of postlabeling with ATP gamma 32P in order to evaluate the genotoxicity by the presence of adducts with DNA bases.

C[C@@H]1Cc2ccc(C(=O)N[C@@H](Cc3ccccc3)C(=O)O)c(O)c2C(=O)O1 [ochratoxin B]
toxicity (all animal species): does not seem to be toxic

C[C@@H]1Cc2c(Cl)cc(C(=O)N[C@@H](Cc3ccc(O)cc3)C(=O)O)c(O)c2C(=O)O1 [Tyrosine-OTA]
genotoxic effects (all animal species; metabolite of OTA, Creppy et al., Arch. Toxicol. 64, 279-284 (1990)): seems to be one of the metabolites responsible for the genotoxic effects

CCOC(=O)[C@H](Cc1ccccc1)NC(=O)c1cc(Cl)c2c(c1O)C(=O)O[C@H](C)C2 [ochratoxin C, ethyl ester of ochratoxin A]
toxicity (all animal species): effects comparable to those of ochratoxin A

O=C(O)O [sodium bicarbonate]
efficacy in treatment of ochratoxicosis [1]: still poor

C[C@@H]1Cc2c(Cl)cc(C(=O)N[C@@H](Cc3ccccc3)C(=O)O)c(O)c2C(=O)O1 [OTA, chlorodihydroisocoumarinylphenylalanine, reference compound]
Quantities of OTA bound to plasma proteins, OTA alone (Table I) (human plasma proteins [2]; OTA 20 μg/ml, 30 min): 215 ± 11 ng/mL | Quantities of OTA bound to plasma proteins, OTA alone (Table I) (human plasma proteins [2]; OTA 20 μg/ml, 60 min): 431 ± 18 ng/mL | Quantities of OTA bound to plasma proteins, OTA alone (Table I) (human plasma proteins [2]; OTA 20 μg/ml, 120 min): 772 ± 25 ng/mL | Quantities of OTA bound to plasma proteins, OTA alone (Table I) (human plasma proteins [2]; OTA 100 μg/ml, 30 min): 442 ± 21 ng/mL | Quantities of OTA bound to plasma proteins, OTA alone (Table I) (human plasma proteins [2]; OTA 100 μg/ml, 60 min): 739 ± 17 ng/mL | Quantities of OTA bound to plasma proteins, OTA alone (Table I) (human plasma proteins [2]; OTA 100 μg/ml, 120 min): 1231 ± 17 ng/mL | Quantities of OTA bound to plasma proteins, OTA alone (Table I) (human plasma proteins [2]; OTA 500 μg/ml, 30 min): 556 ± 15 ng/mL | Quantities of OTA bound to plasma proteins, OTA alone (Table I) (human plasma proteins [2]; OTA 500 μg/ml, 60 min): 1175 ± 71 ng/mL | Quantities of OTA bound to plasma proteins, OTA alone (Table I) (human plasma proteins [2]; OTA 500 μg/ml, 120 min): 1744 ± 112 ng/mL | Quantities of OTA bound to plasma proteins, OTA alone (Table II) (human plasma proteins [3]; OTA 20 μg/ml, 30 min): 163 ± 42 ng/mL | Quantities of OTA bound to plasma proteins, OTA alone (Table II) (human plasma proteins [3]; OTA 20 μg/ml, 60 min): 488 ± 41 ng/mL | Quantities of OTA bound to plasma proteins, OTA alone (Table II) (human plasma proteins [3]; OTA 20 μg/ml, 120 min): 774 ± 43 ng/mL | Quantities of OTA bound to plasma proteins, OTA alone (Table II) (human plasma proteins [3]; OTA 100 μg/ml, 30 min): 491 ± 39 ng/mL | Quantities of OTA bound to plasma proteins, OTA alone (Table II) (human plasma proteins [3]; OTA 100 μg/ml, 60 min): 983 ± 48 ng/mL | Quantities of OTA bound to plasma proteins, OTA alone (Table II) (human plasma proteins [3]; OTA 100 μg/ml, 120 min): 1296 ± 61 ng/mL | Quantities of OTA bound to plasma proteins, OTA alone (Table II) (human plasma proteins [3]; OTA 500 μg/ml, 30 min): 539 ± 41 ng/mL | Quantities of OTA bound to plasma proteins, OTA alone (Table II) (human plasma proteins [3]; OTA 500 μg/ml, 60 min): 1347 ± 92 ng/mL | Quantities of OTA bound to plasma proteins, OTA alone (Table II) (human plasma proteins [3]; OTA 500 μg/ml, 120 min): 1899 ± 89 ng/mL | DNA adducts in organs (liver, kidney, spleen, etc.), OTA-treated animals (DNA): Adducts are detected in large numbers

N[C@@H](Cc1ccccc1)C(=O)O [phenylalanine]
action in chronic intoxication ([1]; chronic intoxication): very inadequate, if not non-existent | efficacy in treatment of ochratoxicosis [1]: not totally satisfactory | acute toxic effects of OTA and inhibition of protein synthesis ([1]; in vivo and in vitro): makes it possible to prevent the acute toxic effects and the inhibition of protein synthesis
